Measurements: patent US12661410B2, “Compounds for targeted degradation of RET” (C4 Therapeutics, Inc., priority 2020, dated 2026)
Residue numbers refer to the chain shown, from its start. Like-named read-outs stand apart in the source and are kept apart here.

How the values were obtained:
RET (658-1114) = biological target: T1, RET (658-1114) (Homo sapiens, UniProt P07949); assay: HiBiT-Degradation, RET wild-type degradation assay (Nano-Glo HiBiT Lytic), 293T.144 cells; type: cell-based; conditions: for Emax / DC50: 6.0 hours
T1 construct: 658-1114; expressed in transfected cells; host or cells: 293T.144 (293T cells, generated in-house)
T1 sequence (P07949 658-1114): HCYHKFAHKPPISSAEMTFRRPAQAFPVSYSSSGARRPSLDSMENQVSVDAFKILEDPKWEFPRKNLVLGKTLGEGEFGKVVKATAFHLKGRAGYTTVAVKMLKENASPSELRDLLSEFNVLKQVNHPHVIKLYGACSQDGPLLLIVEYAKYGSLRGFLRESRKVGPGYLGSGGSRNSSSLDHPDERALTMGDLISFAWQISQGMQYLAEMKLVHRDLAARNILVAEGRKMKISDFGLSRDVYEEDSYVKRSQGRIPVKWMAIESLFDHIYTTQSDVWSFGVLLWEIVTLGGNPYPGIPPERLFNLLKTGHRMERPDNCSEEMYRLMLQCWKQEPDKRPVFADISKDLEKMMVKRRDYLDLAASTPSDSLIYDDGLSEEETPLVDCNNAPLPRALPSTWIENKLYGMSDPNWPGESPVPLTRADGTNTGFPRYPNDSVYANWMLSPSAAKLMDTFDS
Summary of the method: (§1)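 Luminescence readout of HiBiT-tagged RET kinase domain remaining after 6 h compound exposure. Cells: 293T.144 (wild type) or 293T.165 (G810R), 11 half-log doses up to 10 μM, duplicates. DC50 and Emax as % remaining protein taken from curve fits.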

RET(KD: 658-1114 G810R) = biological target: T2, RET(KD: 658-1114 G810R) (Homo sapiens, UniProt P07949, G810R); assay: HiBiT-Degradation, RET G810R degradation assay (Nano-Glo HiBiT Lytic), 293T.165 cells; type: cell-based; conditions: for Emax / DC50: 6.0 hours
T2 construct: 658-1114; expressed in transfected cells; host or cells: 293T.165 (293T cells, generated in-house)
T2 sequence (P07949 658-1114 G810R): T1 sequence (P07949 658-1114) with G153R
Summary of the method: as §1

[1] = % remaining protein, read-out: 293T.144 RET (658-1114) 6.0 hours (Emax)
[2] = half-maximal degradation concentration, read-out: 293T.144 RET (658-1114) 6.0 hours (DC50)
[3] = % remaining protein, read-out: 293T.165 RET(KD: 658-1114 G810R) 6.0 hours (Emax)
[4] = half-maximal degradation concentration, read-out: 293T.165 RET(KD: 658-1114 G810R) 6.0 hours (DC50)
[5] = HiBiT-Degradation, read-out: 293T.144 RET (658-1114) 6.0 hours (DC50)
[6] = HiBiT-Degradation, read-out: 293T.144 RET (658-1114) 6.0 hours (Emax)
[7] = HiBiT-Degradation, read-out: 293T.165 RET(KD: 658-1114 G810R) 6.0 hours (DC50)

| SMILES | 293T.144 RET (658-1114) 6.0 hours (IP) [nM] (RET (658-1114)) | Emax (RET (658-1114); [1]) | DC50 (RET (658-1114); [2]) | 293T.165 RET(KD: 658-1114 G810R) 6.0 hours (IP) [nM] (RET(KD: 658-1114 G810R)) | Emax (RET(KD: 658-1114 G810R); [3]) | DC50 (RET(KD: 658-1114 G810R); [4]) | HiBiT-Degradation 293T.144 RET (658-1114) 6.0 hours (IP) [nM] (RET (658-1114); RET wild-type) | DC50 (RET (658-1114); RET wild-type, read-out: HiBiT-Degradation 293T.144 RET (658-1114) 6.0 hours (DC50)) | Emax (RET (658-1114); RET wild-type, read-out: HiBiT-Degradation 293T.144 RET (658-1114) 6.0 hours (Emax)) | HiBiT-Degradation 293T.165 RET(KD: 658-1114 G810R) 6.0 hours (IP) [nM] (RET(KD: 658-1114 G810R); RET G810R) | DC50 (RET(KD: 658-1114 G810R); RET G810R, read-out: HiBiT-Degradation 293T.165 RET(KD: 658-1114 G810R) 6.0 hours (DC50)) | Emax (RET(KD: 658-1114 G810R); RET G810R, read-out: HiBiT-Degradation 293T.165 RET(KD: 658-1114 G810R) 6.0 hours (Emax)) | 293T.144 RET (658-1114) 6.0 hours (IP) [nM] (RET (658-1114); HiBiT-Degradation) | DC50 (RET (658-1114); [5]) | Emax (RET (658-1114); [6]) | 293T.165 RET(KD: 658-1114 G810R) 6.0 hours (Emax) (RET(KD: 658-1114 G810R); HiBiT-Degradation) | 293T.165 RET(KD: 658-1114 G810R) 6.0 hours (IP) [nM] (RET(KD: 658-1114 G810R); HiBiT-Degradation) | DC50 (RET(KD: 658-1114 G810R); [7]) |
| --- | --- | --- | --- | --- | --- | --- | --- | --- | --- | --- | --- | --- | --- | --- | --- | --- | --- | --- |
| CCC1(C(=O)NC2CCC2)CCN(c2ccc(-c3nc(-c4cnn([C@H]5CC[C@H](N6CCN(c7c(F)cc(N[C@H]8CCC(=O)NC8=O)cc7F)CC6)CC5)c4)cn4ncc(C#N)c34)cn2)CC1 (single isomer, unassigned) [Compound 136] | ++++ (<50 nM = ++++) | < 30% | < 50 nM | ++++ (<50 nM = ++++) | < 30% | < 50 nM |  |  |  |  |  |  |  |  |  |  |  |  |
| N#Cc1cnn2cc(-c3cnn(C4CCN(C(=O)CC5(O)CCN(c6ccc(NC7CCC(=O)NC7=O)cc6F)CC5)CC4)c3)nc(-c3ccc(N4CCN(C(=O)c5cccnc5)CC4)nc3)c12 (stereo not drawn) [Compound 106, 6-[1-[1-[2-[1-[4-[(2,6-dioxo-3-piperidyl)amino]-2-fluoro-phenyl]-4-hydroxy-4-piperidyl]acetyl]-4-piperidyl]pyrazol-4-yl]-4-[6-[4-(pyridine-3-carbonyl)piperazin-1-yl]-3-pyridyl]pyrazolo[1,5-a]pyrazine-3-carbonitrile] | ++++ (<50 nM = ++++) | < 30% | < 50 nM | ++++ (<50 nM = ++++) | < 50% | < 100 nM |  |  |  |  |  |  |  |  |  |  |  |  |
| N#Cc1cnn2cc(-c3cnn([C@H]4CC[C@H](N5CCN(c6ccc(NC7CCC(=O)NC7=O)cc6F)CC5)CC4)c3)nc(-c3ccc(N4CC5COCC(C4)N5Cc4ccccn4)nc3)c12 (single isomer, unassigned) [Compound 157, 6-(1-((1r, 4r)-4-(4-(4-((2,6-dioxopiperidin-3-yl)amino)-2-fluorophenyl)piperazin-1-yl)cyclohexyl)-1H-pyrazol-4-yl)-4-(6-(9-(pyridin-2-ylmethyl)-3-oxa-7,9-diazabicyclo[3.3.1]nonan-7-yl)pyridin-3-yl)pyrazolo[1,5-a]pyrazine-3-carbonitrile] | ++++ (<50 nM = ++++) | < 30% | < 50 nM | ++++ (<50 nM = ++++) | < 30% | < 50 nM |  |  |  |  |  |  |  |  |  |  |  |  |
| CC(C)NC(=O)C1(C)CCN(c2ccc(-c3cc(-c4cnn(CCCCCCN5CCC(c6ccc7c(N8CCC(=O)NC8=O)nn(C)c7c6)CC5)c4)cn4ncc(C#N)c34)cn2)CC1 [Compound 82, 1-[5-[3-cyano-6-[1-[6-[4-[3-(2,4-dioxohexahydropyrimidin-1-yl)-1-methyl-indazol-6-yl]-1-piperidyl]hexyl]pyrazol-4-yl]pyrazolo[1,5-a]pyridin-4-yl]-2-pyridyl]-N-isopropyl-4-methyl-piperidine-4-carboxamide] |  |  |  |  | < 30% | < 100 nM | ++++ (< 50 nM = ++++) | < 50 nM | < 30% | ++++ (< 50 nM = ++++) | < 100 nM | < 30% |  |  |  |  |  |  |
| CCC1(c2ccccn2)CCN(c2ccc(-c3nc(-c4cnn(C5CCN(C(=O)CN6CCC(c7ccc(NC8CCC(=O)NC8=O)cc7F)CC6)CC5)c4)cn4ncc(C#N)c34)cn2)CC1 (stereo not drawn) [Compound 110, 6-[1-[1-[2-[4-[4-[(2,6-dioxo-3-piperidyl)amino]-2-fluoro-phenyl]-1-piperidyl]acetyl]-4-piperidyl]pyrazol-4-yl]-4-[6-[4-ethyl-4-(2-pyridyl)-1-piperidyl]-3-pyridyl]pyrazolo[1,5-a]pyrazine-3-carbonitrile] | ++++ (<50 nM = ++++) | < 30% | < 50 nM | +++ (<100 nM = +++) | < 30% | < 100 nM |  |  |  |  |  |  |  |  |  |  |  |  |
| N#Cc1cnn2cc(-c3cnn(C4CCN(C(=O)CC5(O)CCN(c6ccc(NC7CCC(=O)NC7=O)cc6F)CC5)CC4)c3)nc(-c3ccc(N4CCN(C(=O)C5CCC5)CC4)nc3)c12 (stereo not drawn) [Compound 112, 4-[6-[4-(cyclobutanecarbonyl)piperazin-1-yl]-3-pyridyl]-6-[1-[1-[2-[1-[4-[(2,6-dioxo-3-piperidyl)amino]-2-fluoro-phenyl]-4-hydroxy-4-piperidyl]acetyl]-4-piperidyl]pyrazol-4-yl]pyrazolo[1,5-a]pyrazine-3-carbonitrile] | ++++ (<50 nM = ++++) | < 30% | < 50 nM | ++++ (<50 nM = ++++) | < 50% | < 50 nM |  |  |  |  |  |  |  |  |  |  |  |  |
| N#Cc1cnn2cc(-c3cnn(C4CCN(C(=O)CC5(O)CCN(c6ccc(NC7CCC(=O)NC7=O)cc6F)CC5)CC4)c3)nc(-c3ccc(N4CCC5(CC4)OCc4cccnc45)nc3)c12 (stereo not drawn) [Compound 113, 6-[1-[1-[2-[1-[4-[(2,6-dioxo-3-piperidyl)amino]-2-fluoro-phenyl]-4-hydroxy-4-piperidyl]acetyl]-4-piperidyl]pyrazol-4-yl]-4-(6-spiro[5H-furo[3,4-b]pyridine-7,4′-piperidine]-1′-yl-3-pyridyl)pyrazolo[1,5-a]pyrazine-3-carbonitrile] | ++++ (<50 nM = ++++) | < 30% | < 50 nM | ++++ (<50 nM = ++++) | < 30% | < 50 nM |  |  |  |  |  |  |  |  |  |  |  |  |
| N#Cc1cnn2cc(-c3cnn(C4CCN(C(=O)CN5CCC(c6ccc(NC7CCC(=O)NC7=O)cc6F)CC5)CC4)c3)cc(-c3ccc(N4CC5CCC(C4)N5Cc4ccccn4)nc3)c12 (stereo not drawn) [Compound 62, 6-[1-[1-[2-[4-[4-[(2,6-dioxo-3-piperidyl)amino]-2-fluoro-phenyl]-1-piperidyl]acetyl]-4-piperidyl]pyrazol-4-yl]-4-[6-[8-(2-pyridylmethyl)-3,8-diazabicyclo[3.2.1]octan-3-yl]-3-pyridyl]pyrazolo[1,5-a]pyridine-3-carbonitrile] |  |  |  |  | < 50% | < 100 nM |  |  |  |  |  |  | ++++ (< 50 nM = ++++) | < 50 nM | < 30% | +++ (<50% = +++) | ++++ (< 50 nM = ++++) | < 100 nM |
| CC(=O)N1CCN(c2ccc(-c3cc(-c4cnn(C5CCN(C(=O)CN6CCC(c7ccc(NC8CCC(=O)NC8=O)cc7)CC6)CC5)c4)cn4ncc(C#N)c34)cn2)CC1 (stereo not drawn) [Compound 42, 4-[6-(4-acetylpiperazin-1-yl)-3-pyridyl]-6-[1-[1-[2-[4-[4-[(2,6-dioxo-3-piperidyl)amino]phenyl]-1-piperidyl]acetyl]-4-piperidyl]pyrazol-4-yl]pyrazolo[1,5-a]pyridine-3-carbonitrile] |  |  |  |  | < 50% | < 100 nM |  |  |  |  |  |  | ++++ (< 50 nM = ++++) | < 50 nM | < 30% | +++ (<50% = +++) | ++++ (< 50 nM = ++++) | < 100 nM |
